# Laboratory results as given in US7270965B2, “Assays to screen for compounds that bind the dorsal root receptor” (AstraZeneca AB, priority 2000, dated 2007).
# Legend:
# Type in all cases: cell-based
# [1] = test system: parental HEK-293 cells (non-transfected); experiment: FLIPR calcium mobilization assay (Fluo-3), parental (non-transfected) HEK-293 cells; conditions: wild type / parental HEK-293 cells, compounds dissolved at 3 μM
# Method: (§1) In order to identify the ligand of clone rat and human DRRs, a collection of peptide and non-peptide ligands was obtained from commercial sources (Sigma, CalBiochem, American Peptide Company, Bachem, RBI, Phoenix). The compounds were dissolved in water/DMSO at 3 μM and placed in 96 well microplates. A total of 1000 compounds (peptides and non-peptides) were prepared and tested.
# A functional assay was performed with FLIPR (Fluorescent Imaging Plate Reader, Molecular Devices) using the fluorescent calcium indicator Fluo-3 (Molecular Probes) on a 96 well platform. BEK-293 cells, either expressing the receptor or wild type cells, were loaded with Fluo-3 as follows. Stable HEK-293 clones expressing rat and human DRR or parental cells were plated at a density of 10,000 cells/well in a 96 well plate. On the day of the experiment, the DRR cells were loaded with fluorescent solution (Dulbecco's modified medium with 10% fetal bovine serum containing 4 μM Fluo-3 and 20% pluronic acid). The cells were incubated at 37 C for one hour in a humidified chamber. Following the incubation step, cells were washed five times in Hanks' with 20 mM Hepes and 0.1% BSA (pH 7.4). The cells were analyzed using the FLIPR system to measure the mobilization of intracellular calcium in response to different compounds. […]
# rat DRR = molecular target: T1, rat DRR (Rattus norvegicus, UniProt Q8R4G1); experiment: FLIPR calcium mobilization assay (Fluo-3), HEK-293 cells expressing rat DRR
# T1 construct: expressed in transfected cells
# T1 sequence (Q8R4G1 1-323): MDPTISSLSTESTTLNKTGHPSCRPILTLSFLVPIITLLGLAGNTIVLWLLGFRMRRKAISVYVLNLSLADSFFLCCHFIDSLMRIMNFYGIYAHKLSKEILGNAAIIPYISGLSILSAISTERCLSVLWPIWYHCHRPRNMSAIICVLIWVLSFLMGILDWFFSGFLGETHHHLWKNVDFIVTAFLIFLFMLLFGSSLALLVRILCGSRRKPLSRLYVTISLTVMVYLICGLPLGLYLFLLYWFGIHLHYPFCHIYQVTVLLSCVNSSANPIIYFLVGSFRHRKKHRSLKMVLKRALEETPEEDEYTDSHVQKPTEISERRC
# Method: (§2) REK-293 cells were transfected with a mammalian expression construct coding for the rat and human DRRs (pcDNA 3.0 vector, Invitrogen) using the Superfect reagent (Qiagen). A stable receptor pool of DRR was developed by applying a selection marker (G418, 0.9 mg/ml) and the cells were maintained in this selection medium. The presence of mRNA specific for clone DRR was assessed by Northern blot analysis and by the reverse transcriptase polymerase chain reaction (RT-PCR).
# as §1
# (§3) A functional assay was performed with FLIPR (Fluorescent Imaging Plate Reader, Molecular Devices) using the fluorescent calcium indicator Fluo-3 (Molecular Probes) on a 96 well platform. BEK-293 cells, either expressing the receptor or wild type cells, were loaded with Fluo-3 as follows. […] The cells were analyzed using the FLIPR system to measure the mobilization of intracellular calcium in response to different compounds.
# human DRR = experiment: FLIPR calcium mobilization assay (Fluo-3), HEK-293 cells expressing human DRR
# Method: as §2, §1, §3
substance,measurement,setting,value
YGGFMRRVGRPEWWMDYOKRYG-OH [BAM-22P],calcium response (mobilization of intracellular calcium),[1],not the wild type cells
same,calcium response (mobilization of intracellular calcium),"rat DRR; HEK-293 cells expressing clone rat DRR, FLIPR, Fluo-3, compounds dissolved at 3 μM",consistently elicited signals
same,dose-response relationship of calcium response,rat DRR; cells transfected with rat DRR,observation of a dose-response relationship
same,calcium response (mobilization of intracellular calcium),"human DRR; HEK-293 cells expressing clone human DRR, FLIPR, Fluo-3, compounds dissolved at 3 μM",consistently elicited signals
same,dose-response relationship of calcium response,human DRR; cells transfected with human DRR,observation of a dose-response relationship
